Counter-ions that a name gives are not always drawn. Like-named read-outs stand apart in the source and are kept apart here.
Tests used:
[1] = system: Staphulococcus aureus (ATCC 29213); assay: Minimum inhibitory concentration (MIC) assay, Example 33; type: cell-based, Staphylococcus aureus; conditions: Staphylococcus aureus, ATCC29213, read-out: MIC S. aureus, n = 1
Outline: (§1)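 In CAMHB, 2-fold compound series meet bacteria from fresh isolated colonies, turbidity-adjusted to OD600 0.08-0.13 and diluted 1:100 (2× inoculum). Incubation: 35° C. Endpoint: MIC per CLSI.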

[2] = system: Escherichia coli (ATCC 25922); assay: as above; type: cell-based; conditions: for MIC: Escherichia coli
Outline: as §1

[3] = system: Pseudomonas aeruginosa (ATCC 27853); assay: as above; type: cell-based; conditions: Pseudomonas aeruginosa
Outline: as §1

[4] = system: Aspergillus niger; assay: Extended time kill study, Example 34 (0 to 24 h); type: cell-based
Experimental: (§2) Time kill studies. Strain suspensions were prepared as described above for the MIC test, and strain suspensions and compound solutions were mixed in the same volume. Samples were removed at specified times including 0 min, 30 sec, 1 min and 5 mins, were diluted in the test medium and streaked on agar. Colonies were counted after 24 to 48 hrs of incubation.
(§3) The time kill studies of Example 33 were extended for five compounds (Nex-59, Nex-60, Nex-61, Nex-62, and Nex-88) using the same methods at longer time periods and at higher multiples of MIC. Nex-88 is a code number for DDAIP.HCl from a different supplier.

[5] = system: Candida albicans; assay: Extended time kill study, Example 34 (0 to 24 h); type: cell-based
Experimental: as §2, §3

[6] = system: Escherichia coli; assay: Extended time kill study, Example 34 (0 to 24 h); type: cell-based
Experimental: as §2, §3

Question: For `CCCCCCCCCCCCOC(=O)C(C)N(C)C` (centres unmarked) [Nex-05, Dodecyl 2-(dimethylamino)propanoate hydrochloride], which MIC [1] is on record?
Answer: 3130 µg/mL

Question: What about the MIC ([2]; ATCC25922, Table 19 summary of Example 33 and Example 35) of the same compound?
Answer: 3130 µg/mL

Question: What about the MIC ([2]; ATCC25922, read-out: MIC E. coli, n = 1) of the same compound?
Answer: 3130 µg/mL

Question: And the MIC ([2]; ATCC25922, read-out: MIC E. coli, n = 2)?
Answer: 3130 µg/mL

Question: What about the “MIC E. coli” value ([2]; n = 1, listed as Nex-88, hydrochloride) of the same compound?
Answer: 3130 µg/mL

Question: And the MIC ([3]; ATCC27853, Table 19 summary)?
Answer: 6250 µg/mL

Question: What about the MIC ([3]; ATCC27853, read-out: MIC P. aeruginosa, n = 1) of the same compound?
Answer: 6250 µg/mL

Question: What about the MIC ([3]; ATCC27853, read-out: MIC P. aeruginosa, n = 2) of the same compound?
Answer: 6250 µg/mL

Question: And the “Viable counts in Log10 CFU/mL” value ([4]; 1 × MIC, 1 h)?
Answer: 5.28 Log10 CFU/mL

Question: And the “Viable counts in Log10 CFU/mL” value ([4]; 1 × MIC, 2 h)?
Answer: 4.78 Log10 CFU/mL

Question: And the “Viable counts in Log10 CFU/mL” value ([4]; 1 × MIC, 4 h)?
Answer: 4.60 Log10 CFU/mL

Question: What about the “Viable counts in Log10 CFU/mL” value ([4]; 1 × MIC, 6 h) of the same compound?
Answer: 4.30 Log10 CFU/mL

Question: What about the “Viable counts in Log10 CFU/mL” value ([4]; 1 × MIC, 24 h) of the same compound?
Answer: 3.30 Log10 CFU/mL

Question: What about the “Viable counts in Log10 CFU/mL” value ([4]; 1 × MIC, 0 h) of the same compound?
Answer: 5.41 Log10 CFU/mL

Question: And the “Viable counts in Log10 CFU/mL” value ([4]; 2 × MIC, 1 h)?
Answer: 4.30 Log10 CFU/mL

Question: And the “Viable counts in Log10 CFU/mL” value ([4]; 2 × MIC, 2 h)?
Answer: 4.70 Log10 CFU/mL

Question: What about the “Viable counts in Log10 CFU/mL” value ([4]; 2 × MIC, 4 h) of the same compound?
Answer: 3 Log10 CFU/mL

Question: And the “Viable counts in Log10 CFU/mL” value ([4]; 2 × MIC, 6 h)?
Answer: 4 Log10 CFU/mL

Question: And the “Viable counts in Log10 CFU/mL” value ([4]; 2 × MIC, 24 h)?
Answer: <2 Log10 CFU/mL

Question: And the “Viable counts in Log10 CFU/mL” value ([4]; 2 × MIC, 0 h)?
Answer: 5.38 Log10 CFU/mL

Question: What about the “Viable counts in Log10 CFU/mL” value ([4]; 4 × MIC, 1 h) of the same compound?
Answer: 4.48 Log10 CFU/mL

Question: And the “Viable counts in Log10 CFU/mL” value ([4]; 4 × MIC, 2 h)?
Answer: 4 Log10 CFU/mL

Question: And the “Viable counts in Log10 CFU/mL” value ([4]; 4 × MIC, 4 h)?
Answer: 3 Log10 CFU/mL

Question: And the “Viable counts in Log10 CFU/mL” value ([4]; 4 × MIC, 6 h)?
Answer: 4 Log10 CFU/mL

Question: And the “Viable counts in Log10 CFU/mL” value ([4]; 4 × MIC, 24 h)?
Answer: <2 Log10 CFU/mL

Question: What about the “Viable counts in Log10 CFU/mL” value ([4]; 4 × MIC, 0 h) of the same compound?
Answer: 5.50 Log10 CFU/mL

Question: What about the “Viable counts in Log10 CFU/mL” value ([5]; 1 × MIC, 1 h) of the same compound?
Answer: 5.62 Log10 CFU/mL

Question: And the “Viable counts in Log10 CFU/mL” value ([5]; 1 × MIC, 2 h)?
Answer: 5.60 Log10 CFU/mL

Question: What about the “Viable counts in Log10 CFU/mL” value ([5]; 1 × MIC, 4 h) of the same compound?
Answer: 5.60 Log10 CFU/mL

Question: What about the “Viable counts in Log10 CFU/mL” value ([5]; 1 × MIC, 6 h) of the same compound?
Answer: 6.02 Log10 CFU/mL

Question: What about the “Viable counts in Log10 CFU/mL” value ([5]; 1 × MIC, 24 h) of the same compound?
Answer: >6 Log10 CFU/mL

Question: And the “Viable counts in Log10 CFU/mL” value ([5]; 1 × MIC, 0 h)?
Answer: 5.82 Log10 CFU/mL

Question: And the “Viable counts in Log10 CFU/mL” value ([5]; 2 × MIC, 1 h)?
Answer: 4.99 Log10 CFU/mL

Question: What about the “Viable counts in Log10 CFU/mL” value ([5]; 2 × MIC, 2 h) of the same compound?
Answer: 4.88 Log10 CFU/mL

Question: And the “Viable counts in Log10 CFU/mL” value ([5]; 2 × MIC, 4 h)?
Answer: 4.62 Log10 CFU/mL

Question: And the “Viable counts in Log10 CFU/mL” value ([5]; 2 × MIC, 6 h)?
Answer: 4.58 Log10 CFU/mL

Question: What about the “Viable counts in Log10 CFU/mL” value ([5]; 2 × MIC, 24 h) of the same compound?
Answer: 2.57 Log10 CFU/mL

Question: What about the “Viable counts in Log10 CFU/mL” value ([5]; 2 × MIC, 0 h) of the same compound?
Answer: 5.81 Log10 CFU/mL

Question: And the “Viable counts in Log10 CFU/mL” value ([5]; 4 × MIC, 1 h)?
Answer: 3.95 Log10 CFU/mL

Question: What about the “Viable counts in Log10 CFU/mL” value ([5]; 4 × MIC, 2 h) of the same compound?
Answer: 3.90 Log10 CFU/mL

Question: And the “Viable counts in Log10 CFU/mL” value ([5]; 4 × MIC, 4 h)?
Answer: <2.70 Log10 CFU/mL

Question: What about the “Viable counts in Log10 CFU/mL” value ([5]; 4 × MIC, 6 h) of the same compound?
Answer: <2.70 Log10 CFU/mL

Question: And the “Viable counts in Log10 CFU/mL” value ([5]; 4 × MIC, 24 h)?
Answer: <1 Log10 CFU/mL

Question: And the “Viable counts in Log10 CFU/mL” value ([5]; 4 × MIC, 0 h)?
Answer: 5.79 Log10 CFU/mL

Question: What about the “Viable counts, Escherichia coli time kill study” value ([6]; 1 × MIC, 1 h) of the same compound?
Answer: <1 Log10 CFU/mL

Question: What about the “Viable counts, Escherichia coli time kill study” value ([6]; 1 × MIC, 2 h) of the same compound?
Answer: <1 Log10 CFU/mL

Question: And the “Viable counts, Escherichia coli time kill study” value ([6]; 1 × MIC, 4 h)?
Answer: <1 Log10 CFU/mL

Question: What about the “Viable counts, Escherichia coli time kill study” value ([6]; 1 × MIC, 6 h) of the same compound?
Answer: <1 Log10 CFU/mL

Question: And the “Viable counts, Escherichia coli time kill study” value ([6]; 1 × MIC, 24 h)?
Answer: <1 Log10 CFU/mL

Question: What about the “Viable counts, Escherichia coli time kill study” value ([6]; 1×MIC, time 0) of the same compound?
Answer: 5.10 Log10 CFU/mL

Question: What about the “Viable counts, Escherichia coli time kill study” value ([6]; 2 × MIC, 1 h) of the same compound?
Answer: <1 Log10 CFU/mL

Question: And the “Viable counts, Escherichia coli time kill study” value ([6]; 2 × MIC, 2 h)?
Answer: <1 Log10 CFU/mL

Question: What about the “Viable counts, Escherichia coli time kill study” value ([6]; 2 × MIC, 4 h) of the same compound?
Answer: <1 Log10 CFU/mL

Question: And the “Viable counts, Escherichia coli time kill study” value ([6]; 2 × MIC, 6 h)?
Answer: <1 Log10 CFU/mL

Question: And the “Viable counts, Escherichia coli time kill study” value ([6]; 2 × MIC, 24 h)?
Answer: <1 Log10 CFU/mL

Question: What about the “Viable counts, Escherichia coli time kill study” value ([6]; 2 × MIC, time 0) of the same compound?
Answer: 5.16 Log10 CFU/mL

Question: And the “Viable counts, Escherichia coli time kill study” value ([6]; 4 × MIC, 1 h)?
Answer: <1 Log10 CFU/mL

Question: What about the “Viable counts, Escherichia coli time kill study” value ([6]; 4 × MIC, 2 h) of the same compound?
Answer: <1 Log10 CFU/mL

Question: What about the “Viable counts, Escherichia coli time kill study” value ([6]; 4 × MIC, 4 h) of the same compound?
Answer: <1 Log10 CFU/mL

Question: What about the “Viable counts, Escherichia coli time kill study” value ([6]; 4 × MIC, 6 h) of the same compound?
Answer: <1 Log10 CFU/mL

Question: And the “Viable counts, Escherichia coli time kill study” value ([6]; 4 × MIC, 24 h)?
Answer: <1 Log10 CFU/mL

Question: And the “Viable counts, Escherichia coli time kill study” value ([6]; 4 × MIC, time 0)?
Answer: 5.21 Log10 CFU/mL

From patent US20140357713A1, “ANTIMICROBIAL COMPOUNDS AND METHODS OF USE” (NexMed Holdings, Inc., priority 2012, published 2014)
